Measured values reported in ChEMBL document CHEMBL1153662, “Synthesis and antiviral activity of alkylphosphonic acid derivatives of oxetanocin-A” (Bioorg Med Chem Lett, 1994).

Experiments:
Type in all cases: functional, cell-based
[1] = system: Vero; assay: In vitro antiviral activity against HSV-2 in vero cells by a plaque reduction assay at concentration up to 10 ug/mL; devoid of activity; conditions: Chlorocebus sabaeus
[2] = system: MT4; assay: In vitro […] against HIV-1 in MT-4 cells by indirect an immunofluorescence assay at concentration up to 100 ug/mL; devoid of activity; conditions: Homo sapiens
[3] = system: Vero; assay: In vitro antiviral activity against HSV-1 in vero cells by a plaque reduction assay at concentration up to 10 ug/mL; devoid of activity; conditions: Chlorocebus sabaeus

Measured: Activity

Nc1ncnc2c1ncn2C1OC(CCCP(=O)(O)O)C1CO (configuration not stated)
devoid of activity: all assays above

Nc1ncnc2c1ncn2C1OC(CCP(=O)(O)O)C1CO (configuration not stated)
devoid of activity: all assays above

Nc1ncnc2c1ncn2C1OC(/C=C/P(=O)(O)O)C1CO (configuration not stated)
devoid of activity: all assays above

Nc1ncnc2c1ncn2C1OC(C(O)P(=O)(O)O)C1CO (configuration not stated)
devoid of activity: all assays above
